Source: PubChem BioAssay AID1919008 (Molecular Pharmacology Branch, DTP, NCI, 2023)

Tested on: DMS-114 complex spheroids with HUVEC/MSC, growth % test/control
Assay: Anticancer human tumor DMS-114 cell line growth inhibition [AhR];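 also: spheroids exposed to agents for 7 days before readout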;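 as to viability, T/C: 100% = DMSO vehicle control wells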
Settings: for IC50: curve of first compound; for viability, T/C: stronger effect = lower value
Outline: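 Complex tumor spheroids co-cultured with HUVEC and human MSC stroma; AhR antagonists tested in combination with standard-of-care and investigational agents. Top concentration at or near clinical Cmax (else 10 microM), half-log dilutions; growth expressed as percent test/control.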

[1] = second compound 0.1 µM, first compound 0.00316 µM
[2] = second compound 0.1 µM, first compound 0.01 µM
[3] = second compound 0.1 µM, first compound 0.0316 µM
[4] = second compound 0.1 µM, first compound 0.1 µM
[5] = second compound 0.316 µM, first compound 0.00316 µM
[6] = second compound 0.316 µM, first compound 0.01 µM
[7] = second compound 0.316 µM, first compound 0.0316 µM
[8] = second compound 0.316 µM, first compound 0.1 µM
[9] = second compound 1 µM, first compound 0.00316 µM
[10] = second compound 1 µM, first compound 0.01 µM
[11] = second compound 1 µM, first compound 0.0316 µM
[12] = second compound 1 µM, first compound 0.1 µM
[13] = second compound 3.16 µM, first compound 0.00316 µM
[14] = second compound 3.16 µM, first compound 0.01 µM
[15] = second compound 3.16 µM, first compound 0.0316 µM
[16] = second compound 3.16 µM, first compound 0.1 µM
[17] = second compound 10 µM, first compound 0.00316 µM
[18] = second compound 10 µM, first compound 0.01 µM
[19] = second compound 10 µM, first compound 0.0316 µM
[20] = second compound 10 µM, first compound 0.1 µM
[21] = second compound 0.1 µM, first compound 0.316 µM
[22] = second compound 0.1 µM, first compound 1 µM
[23] = second compound 0.1 µM, first compound 3.16 µM
[24] = second compound 0.1 µM, first compound 10 µM
[25] = second compound 0.316 µM, first compound 0.316 µM
[26] = second compound 0.316 µM, first compound 1 µM
[27] = second compound 0.316 µM, first compound 3.16 µM
[28] = second compound 0.316 µM, first compound 10 µM
[29] = second compound 1 µM, first compound 0.316 µM
[30] = second compound 1 µM, first compound 1 µM
[31] = second compound 1 µM, first compound 3.16 µM
[32] = second compound 1 µM, first compound 10 µM
[33] = second compound 3.16 µM, first compound 0.316 µM
[34] = second compound 3.16 µM, first compound 1 µM
[35] = second compound 3.16 µM, first compound 3.16 µM
[36] = second compound 3.16 µM, first compound 10 µM
[37] = second compound 10 µM, first compound 0.316 µM
[38] = second compound 10 µM, first compound 1 µM
[39] = second compound 10 µM, first compound 3.16 µM
[40] = second compound 10 µM, first compound 10 µM

| SMILES | IC50 (second compound 0.1 µM) | IC50 (second compound 0.316 µM) | IC50 (second compound 1 µM) | IC50 (second compound 3.16 µM) | IC50 (second compound 10 µM) | viability, T/C [3] | viability, T/C [4] | viability, T/C [7] | viability, T/C [8] | viability, T/C [11] | viability, T/C [12] | viability, T/C [15] | viability, T/C [16] | viability, T/C [19] | viability, T/C [20] | viability, T/C [21] | viability, T/C [22] | viability, T/C [25] | viability, T/C [26] | viability, T/C [29] | further results |
| --- | --- | --- | --- | --- | --- | --- | --- | --- | --- | --- | --- | --- | --- | --- | --- | --- | --- | --- | --- | --- | --- |
| CC[C@@]1(O)C(=O)OCc2c1cc1n(c2=O)Cc2cc3c(CN(C)C)c(O)ccc3nc2-1 + Cc1ccccc1N=Nc1ccc(NC(=O)c2ccnn2C)c(C)c1 | 0.0611 µM | 0.0651 µM | 0.0712 µM | 0.0741 µM | 0.0612 µM | 66.2% | 38% | 61.7% | 43% | 65% | 43.7% | 68.5% | 43.5% | 58% | 44.1% | – | – | – | – | – | viability, T/C (second compound 0.1 µM, first compound 0.000316 µM): 99.3%; viability, T/C (second compound 0.1 µM, first compound 0.001 µM): 102%; viability, T/C [1]: 97.8%; viability, T/C [2]: 88.6%; viability, T/C (second compound 0.316 µM, first compound 0.000316 µM): 95%; viability, T/C (second compound 0.316 µM, first compound 0.001 µM): 106%; viability, T/C [5]: 100%; viability, T/C [6]: 102%; viability, T/C (second compound 1 µM, first compound 0.000316 µM): 99.2%; viability, T/C (second compound 1 µM, first compound 0.001 µM): 92.3%; viability, T/C [9]: 99.6%; viability, T/C [10]: 94%; viability, T/C (second compound 3.16 µM, first compound 0.000316 µM): 89.2%; viability, T/C (second compound 3.16 µM, first compound 0.001 µM): 92.1%; viability, T/C [13]: 93.2%; viability, T/C [14]: 83.4%; viability, T/C (second compound 10 µM, first compound 0.000316 µM): 91.8%; viability, T/C (second compound 10 µM, first compound 0.001 µM): 92.2%; viability, T/C [17]: 92.1%; viability, T/C [18]: 87.6% |
| COc1cc(C2c3cc4c(cc3C(OC3OC5COC(C)OC5C(O)C3O)C3COC(=O)C23)OCO4)cc(OC)c1O (stereo not given) + Cc1ccccc1N=Nc1ccc(NC(=O)c2ccnn2C)c(C)c1 | 1.74 µM | 1.76 µM | 1.47 µM | 1.65 µM | 1.75 µM | 99.4% | 99.1% | 105% | 100% | 97.7% | 92.4% | 100% | 96.4% | 90.7% | 92.5% | 93.4% | 59.7% | 84.4% | 56.9% | 84.4% | viability, T/C [23]: 40.4%; viability, T/C [24]: 26.5%; viability, T/C [27]: 43%; viability, T/C [28]: 25.5%; viability, T/C [30]: 52.2%; viability, T/C [31]: 43.6%; viability, T/C [32]: 29.6%; viability, T/C [33]: 81.7%; viability, T/C [34]: 59.4%; viability, T/C [35]: 37.9%; viability, T/C [36]: 26.4%; viability, T/C [37]: 82.7%; viability, T/C [38]: 57.6%; viability, T/C [39]: 42.2%; viability, T/C [40]: 27.7% |
| COc1cccc2c1C(=O)c1c(O)c3c(c(O)c1C2=O)CC(O)(C(=O)CO)CC3OC1CC(N)C(O)C(C)O1 (stereo not given) + Cc1ccccc1N=Nc1ccc(NC(=O)c2ccnn2C)c(C)c1 | 0.0816 µM | 0.11 µM | 0.107 µM | 0.104 µM | 0.0984 µM | 71.6% | 44.9% | 75.5% | 52.5% | 71.4% | 51.8% | 71% | 50.7% | 68.7% | 48.8% | 17.1% | 1.65% | 19.4% | 1.84% | 18.3% | viability, T/C [23]: 0.32%; viability, T/C [24]: 0.78%; viability, T/C [27]: 0.33%; viability, T/C [28]: 1.22%; viability, T/C [30]: 2.28%; viability, T/C [31]: 0.52%; viability, T/C [32]: 0.56%; viability, T/C [33]: 19.3%; viability, T/C [34]: 1.97%; viability, T/C [35]: 0.59%; viability, T/C [36]: 0.61%; viability, T/C [37]: 21.6%; viability, T/C [38]: 1.61%; viability, T/C [39]: 0.52%; viability, T/C [40]: 0.7% |
| Nc1ncn(C2CC(O)C(CO)O2)c(=O)n1 (stereo not given) + Cc1ccccc1N=Nc1ccc(NC(=O)c2ccnn2C)c(C)c1 | > 1 µM | > 1 µM | > 1 µM | > 1 µM | > 1 µM | 103% | 117% | 104% | 113% | 108% | 101% | 95.7% | 99.8% | 92.1% | 91% | 104% | 105% | 96.3% | 104% | 95.4% | viability, T/C [1]: 111%; viability, T/C [2]: 105%; viability, T/C [5]: 103%; viability, T/C [6]: 95.4%; viability, T/C [9]: 109%; viability, T/C [10]: 104%; viability, T/C [30]: 106%; viability, T/C [13]: 115%; viability, T/C [14]: 96.2%; viability, T/C [33]: 99.7%; viability, T/C [34]: 97.7%; viability, T/C [17]: 98.8%; viability, T/C [18]: 98.1%; viability, T/C [37]: 105%; viability, T/C [38]: 87.6% |
